From PMC5951806, “Rapid labelling and covalent inhibition of intracellular native proteins using ligand-directed N-acyl-N-alkyl sulfonamide” (Nature Communications, 2018)

What was measured:
[1] = target: T1, ATP-citrate synthase (ACLY) (Homo sapiens, UniProt P53396); assay: TMT LC-MSMS of 11-labelled proteins; format: cell-based
T1 sequence (P53396 1-1101): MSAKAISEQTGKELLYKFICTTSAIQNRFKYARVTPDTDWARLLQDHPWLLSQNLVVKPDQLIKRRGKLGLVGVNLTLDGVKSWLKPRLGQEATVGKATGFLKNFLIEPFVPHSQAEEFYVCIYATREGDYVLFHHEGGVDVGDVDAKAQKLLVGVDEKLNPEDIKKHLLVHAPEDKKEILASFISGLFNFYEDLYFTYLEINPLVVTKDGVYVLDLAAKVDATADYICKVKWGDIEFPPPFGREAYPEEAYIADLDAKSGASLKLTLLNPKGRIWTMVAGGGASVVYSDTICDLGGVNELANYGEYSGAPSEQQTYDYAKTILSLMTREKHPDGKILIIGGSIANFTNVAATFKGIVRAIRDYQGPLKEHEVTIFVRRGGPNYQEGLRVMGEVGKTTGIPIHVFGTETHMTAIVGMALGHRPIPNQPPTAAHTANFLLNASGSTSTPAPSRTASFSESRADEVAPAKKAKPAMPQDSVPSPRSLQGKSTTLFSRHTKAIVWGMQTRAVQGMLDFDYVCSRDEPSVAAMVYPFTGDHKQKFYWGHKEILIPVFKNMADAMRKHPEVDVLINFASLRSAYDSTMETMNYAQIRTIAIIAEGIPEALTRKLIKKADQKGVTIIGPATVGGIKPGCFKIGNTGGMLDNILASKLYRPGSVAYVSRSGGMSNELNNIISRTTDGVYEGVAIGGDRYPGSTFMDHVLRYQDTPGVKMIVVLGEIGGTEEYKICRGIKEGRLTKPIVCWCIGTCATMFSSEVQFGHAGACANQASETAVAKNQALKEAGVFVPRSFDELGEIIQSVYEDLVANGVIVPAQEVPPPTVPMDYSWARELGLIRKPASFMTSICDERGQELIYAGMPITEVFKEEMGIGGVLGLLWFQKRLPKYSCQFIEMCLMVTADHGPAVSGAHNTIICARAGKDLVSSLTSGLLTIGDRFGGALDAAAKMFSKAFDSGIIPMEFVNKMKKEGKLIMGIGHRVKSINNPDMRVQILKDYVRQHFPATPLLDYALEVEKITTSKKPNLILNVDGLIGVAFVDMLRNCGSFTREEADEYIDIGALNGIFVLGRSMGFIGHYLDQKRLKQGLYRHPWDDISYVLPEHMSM

[2] = target: T-complex protein 1 subunit theta (CCT8) (Homo sapiens, UniProt P50990); assay: TMT LC-MSMS of 11-labelled proteins; format: cell-based; conditions: sheet Exp1, SKBR3 cells

Abundance Ratio: (11) / (11 with PU-H71) ([1]; Exp3, ACLY): 0.932
Abundance Ratio: (11) / (DMSO) ([1]; Exp3, ACLY): 2.236
Abundances (Grouped): 11 ([1]; Exp3, ACLY): 52.1
Abundances (Grouped): 11 with PU-H71 ([1]; Exp3, ACLY): 55.9
Abundance Ratio: (11) / (11 with PU-H71) ([1]; sheet Exp2, ACLY): 0.837
Abundance Ratio: (11) / (DMSO) ([1]; sheet Exp2, ACLY): 2.101
Abundances (Grouped): 11 ([1]; sheet Exp2, ACLY): 33.4
Abundances (Grouped): 11 with PU-H71 ([1]; sheet Exp2, ACLY): 39.9
Abundance Ratio: (11) / (DMSO) ([1]; sheet Merged, SKBR3 cells, 11 0.5 µM 3 h vs DMSO): 2.047
Abundance Ratio: (11) / (11 with PU-H71) ([1]; sheet Merged, SKBR3 cells, 11 0.5 µM 3 h vs with PU-H71 10 µM): 0.851
Abundance Ratio: (11) / (DMSO) ([2]; 11 0.5 µM 3 h vs DMSO): 2.74
Abundance Ratio: (11) / (11 with PU-H71) ([2]; 11 0.5 µM 3 h vs with PU-H71 10 µM): 0.821
Compound: CC(=O)Oc1ccc2c(c1)Oc1cc(OC(C)=O)ccc1C21OC(=O)c2cc(C(=O)NCCOCCOCCNC(=O)CCCC(=O)N(CC#N)S(=O)(=O)c3ccc(C(=O)NCCCn4c(Sc5cc6c(cc5I)OCO6)nc5c(N)ncnc54)cc3)ccc21 [compound 11]
